As a reminder, the IC50 is the midpoint of a concentration-inhibition curve.

This assay deals with GABAA receptor ([35S]-TBPS binding, rat brain cortical membranes). Kind of assay: Steroid inhibition of [35S]-TBPS binding. Conditions: 3 nM [35S]-TBPS, in the presence of 5 mM GABA, 90 min at room temp. Here is the method:
Steroid Inhibition of TBPS Binding
[^35S]-t-Butylbicyclophosphorothionate (TBPS) binding assays using rat brain cortical membranes in the presence of 5 mM GABA has been described (Gee et al, J. Pharmacol. Exp. Ther. 1987, 241, 346-353; Hawkinson et al, Mol. Pharmacol. 1994, 46, 977-985; Lewin, A. H et al., Mol. Pharmacol. 1989, 35, 189-194).
Briefly, cortices are rapidly removed following decapitation of carbon dioxide-anesthetized Sprague-Dawley rats (200-250 g). The cortices are homogenized in 10 volumes of ice-cold 0.32 M sucrose using a glass/teflon homogenizer and centrifuged at 1500×g for 10 min at 4° C. The resultant supernatants are centrifuged at 10,000×g for 20 min at 4° C. to obtain the P2 pellets. The P2 pellets are resuspended in 200 mM NaCl/50 mM Na—K phosphate pH 7.4 buffer and centrifuged at 10,000×g for 10 min at 4° C. This washing procedure is repeated twice and the pellets are resuspended in 10 volumes of buffer. Aliquots ([…]) of the membrane suspensions are incubated with 3 nM [^35S]-TBPS and […] aliquots of test drug dissolved in dimethyl sulfoxide (DMSO) (final 0.5%) in the presence of 5 mM GABA. The incubation is brought to a final volume of 1.0 mL with buffer. Nonspecific binding is determined in the presence of […] and ranged from 15 to 25%. Following a 90 min incubation at room temp, the assays are terminated by filtration through glass fiber filters (Schleicher and Schuell No. 32) using a cell harvester (Brandel) and rinsed three times with ice-cold buffer. Filter bound radioactivity is measured by liquid scintillation spectrometry. Non-linear curve fitting of the overall data for each drug averaged for each concentration is done using Prism (GraphPad). […] The concentration of test compound producing 50% inhibition (IC50) of specific binding and the maximal extent of inhibition (Imax) are determined for the individual experiments with the same model used for the overall data and then the means±SEM.s of the individual experiments are calculated.
Various compounds are or can be screened to determine their potential as modulators of [^35S]-TBPS binding in vitro. These assays are or can be performed in accordance with the above.

Turning to `C[C@@]1(O)CC[C@H]2[C@H](CC[C@@H]3[C@@H]2CC[C@@]2(C)[C@H]3C[C@H]3C[C@H]3[C@@H]2[C@@](C)(O)Cn2cc(C#N)cn2)C1` [Compound No. 3], the IC50 is less than 100 nM.
With `CCC[C@@]1(O)CC[C@H]2C(CC[C@@H]3[C@@H]2CC[C@@]2(C)[C@H]3[C@@H]3C[C@@H]3[C@@H]2C(=O)Nc2ccc(C#N)cn2)C1` (stereo in doubt) [Compound No. 15, (2R,4aS,4bR,6aS,7S,7aS,8aR,8bR,8cR,10aR)-N-(5-cyanopyridin-2-yl)-2-hydroxy-6a-methyl-2-propyloctadecahydrocyclopropa[4,5]cyclopenta[1,2-a]phenanthrene-7-carboxamide] the figure was less than 100 nM.
In the case of `COC[C@@]1(O)CC[C@H]2[C@@H](CC[C@@H]3[C@@H]2CC[C@@]2(C)[C@H]3[C@@H]3C[C@@H]3[C@@H]2[C@H](C)Cn2nnc(C)n2)C1` [Compound No. 17, (2R,4aS,4bR,6aS,7R,7aS,8aR,8bR,8cR,10aS)-2-(methoxymethyl)-6a-methyl-7-((S)-1-(5-methyl-2H-tetrazol-2-yl)propan-2-yl)octadecahydrocyclopropa[4,5]cyclopenta[1,2-a]phenanthren-2-ol] it was 100 to 1000 nM; in that of `Cc1nnnn1C[C@H]1C[C@@H]1[C@H]1CC[C@H]2[C@@H]3CC[C@@H]4C[C@](C)(O)CC[C@@H]4[C@H]3CC[C@]12C` [Compound No. 26, (3R,5R,8R,9R,10S,13S,14S,17R)-3,13-dimethyl-17-((1R,2S)-2-((5-methyl-1H-tetrazol-1-yl)methyl)cyclopropyl)hexadecahydro-1H-cyclopenta[a]phenanthren-3-ol], less than 100 nM; in that of `C[C@@]1(O)CC[C@@]2(C)[C@@H](CC[C@@H]3[C@@H]2CC[C@@]24C[C@@]32CC[C@@H]4C(=O)Cn2cc(C#N)cn2)C1` [Compound No. 23, 1-(2-((3R,5S,8R,9S,10S,13S,14S,17S)-3-hydroxy-3,10-dimethyltetradecahydro-1H-13,14-methanocyclopenta[a]phenanthren-17-yl)-2-oxoethyl)-1H-pyrazole-4-carbonitrile], less than 100 nM.
With `C[C@@]1(O)CC[C@H]2[C@H](CC[C@@H]3[C@@H]2CC[C@]2(C)[C@H](C(=O)Cn4cc(C#N)cn4)[C@H]4C[C@H]4C[C@@H]32)C1` [Compound No. 7, 1-(2-((2R,4aS,4bR,6aS,7R,7aS,8aS,9aS,9bR,11aR)-2-hydroxy-2,6a-dimethyloctadecahydro-1H-cyclopropa[b]chrysen-7-yl)-2-oxoethyl)-1H-pyrazole-4-carbonitrile] the figure was greater than 1000 nM.
As to `C[C@@]1(O)CC[C@H]2[C@H](CC[C@@H]3[C@@H]2CC[C@]2(C)[C@@H]([C@@H]4C[C@H]4Cn4cc(C#N)cn4)CC[C@@H]32)C1` [Compound No. 25, 1-(((1R,2S)-2-((3R,5R,8R,9R,10S,13S,14S,17R)-3-hydroxy-3,13-dimethylhexadecahydro-1H-cyclopenta[a]phenanthren-17-yl)cyclopropyl)methyl)-1H-pyrazole-4-carbonitrile], the half-maximal inhibitory concentration (IC50) was less than 100 nM.
Take `COC[C@@]1(O)CC[C@H]2[C@@H](CC[C@@H]3[C@@H]2CC[C@@]2(C)[C@H]3[C@@H]3C[C@@H]3[C@@H]2C(C)=O)C1` [Compound No. 16, 1-((2R,4aS,4bR,6aS,7S,7aS,8aR,8bR,8cR,10aS)-2-hydroxy-2-(methoxymethyl)-6a-methyloctadecahydrocyclopropa[4,5]cyclopenta[1,2-a]phenanthren-7-yl)ethanone]: the IC50 was less than 100 nM.
In the case of `Cc1nnn(C[C@@H]2C[C@H]2[C@H]2CC[C@H]3[C@@H]4CC[C@@H]5C[C@](C)(O)CC[C@@H]5[C@H]4CC[C@]23C)n1` [Compound No. 28, (3R,5R,8R,9R,10S,13S,14S,17R)-3,13-dimethyl-17-((1S,2R)-2-((5-methyl-2H-tetrazol-2-yl)methyl)cyclopropyl)hexadecahydro-1H-cyclopenta[a]phenanthren-3-ol] it was less than 100 nM; in that of `C[C@@]1(O)CC[C@H]2[C@H](CC[C@@H]3[C@@H]2CC[C@@]2(C)[C@H]3C[C@H]3C[C@H]3[C@@H]2[C@](C)(O)Cn2cc(C#N)cn2)C1` [Compound No. 2, 1-((S)-2-hydroxy-2-((2R,4aS,4bR,6aS,7S,7aR,8aR,9aS,9bR,11aR)-2-hydroxy-2,6a-dimethyloctadecahydro-1H-cyclopropa[b]chrysen-7-yl)propyl)-1H-pyrazole-4-carbonitrile], less than 100 nM; in that of `C[C@@]1(O)CC[C@H]2[C@H](CC[C@@H]3[C@@H]2CC[C@@]2(C)[C@H]3[C@@H]3C[C@@H]3[C@@H]2[C@@](C)(O)Cn2cc(C#N)cn2)C1` (single isomer, unassigned) [Compound No. 13], less than 100 nM.
Regarding `C[C@@]1(O)CC[C@H]2[C@H](CC[C@@H]3[C@@H]2CC[C@@]2(C)[C@H]3[C@@H]3C[C@@H]3C[C@@H]2C(=O)Cn2cc(C#N)cn2)C1` [Compound No. 8, 1-(2-((1S,2aR,3aR,3bS,3cR,5aR,7R,9aS,9bR,11aS)-7-hydroxy-7,11a-dimethyloctadecahydro-1H-cyclopropa[c]chrysen-1-yl)-2-oxoethyl)-1H-pyrazole-4-carbonitrile], the IC50 was less than 100 nM.
In the case of `C[C@H](Cn1cc(C#N)cn1)[C@H]1[C@@H]2C[C@@H]2C[C@H]2[C@@H]3CC[C@@H]4C[C@](C)(O)CC[C@@H]4[C@H]3CC[C@]12C` [Compound No. 5, 1-((S)-2-((2R,4aS,4bR,6aS,7R,7aR,8aR,9aS,9bR,11aR)-2-hydroxy-2,6a-dimethyloctadecahydro-1H-cyclopropa[b]chrysen-7-yl)propyl)-1H-pyrazole-4-carbonitrile] it was less than 100 nM.
Consider `CC(Cn1cc(C#N)cn1)[C@H]1[C@H]2C[C@H]2[C@H]2[C@@H]3CC[C@@H]4C[C@](C)(O)CC[C@@H]4[C@H]3CC[C@@]21C` (single isomer, unassigned) [Compound No. 10], for which the IC50 was less than 100 nM.
With `C[C@@]1(O)CC[C@H]2[C@H](CC[C@@H]3[C@@H]2CC[C@@]2(C)[C@H]3[C@@H]3C[C@@H]3[C@@H]2[C@](C)(O)Cn2cc(C#N)cn2)C1` (single isomer, unassigned) [Compound No. 12], the half-inhibitory concentration (IC50) is less than 100 nM.
In the case of `C[C@@H](Cn1cc(C#N)cn1)[C@H]1[C@@H]2C[C@@H]2C[C@H]2[C@@H]3CC[C@@H]4C[C@](C)(O)CC[C@@H]4[C@H]3CC[C@]12C` [Compound No. 4, 1-((R)-2-((2R,4aS,4bR,6aS,7R,7aR,8aR,9aS,9bR,11aR)-2-hydroxy-2,6a-dimethyloctadecahydro-1H-cyclopropa[b]chrysen-7-yl)propyl)-1H-pyrazole-4-carbonitrile] it was less than 100 nM.
In the case of `C[C@@]1(O)CC[C@H]2[C@H](CC[C@@H]3[C@@H]2CC[C@@]2(C)[C@H]3C[C@H]3C[C@H]3[C@@H]2C(=O)Cn2cc(C#N)cn2)C1` [Compound No. 1, 1-(2-((2R,4aS,4bR,6aS,7S,7aR,8aR,9aS,9bR,11aR)-2-hydroxy-2,6α-dimethyloctadecahydro-1H-cyclopropa[b]chrysen-7-yl)-2-oxoethyl)-1H-pyrazole-4-carbonitrile] it was less than 100 nM; in that of `Cc1nnnn1C[C@@H]1C[C@H]1[C@H]1CC[C@H]2[C@@H]3CC[C@@H]4C[C@](C)(O)CC[C@@H]4[C@H]3CC[C@]12C` [Compound No. 27, (3R,5R,8R,9R,10S,13S,14S,17R)-3,13-dimethyl-17-((1S,2R)-2-((5-methyl-1H-tetrazol-1-yl)methyl)cyclopropyl)hexadecahydro-1H-cyclopenta[a]phenanthren-3-ol], 100 to 1000 nM; in that of `CC(=O)[C@H]1CC[C@@]23C[C@@]12CC[C@H]1[C@H]3CC[C@H]2C[C@](C)(O)CC[C@@]21C` [Compound No. 22, 1-((3R,5S,8R,9S,10S,13S,14S,17S)-3-hydroxy-3,10-dimethyltetradecahydro-1H-13,14-methanocyclopenta[a]phenanthren-17-yl)ethanone], 100 to 1000 nM.
In the case of `CC(=O)[C@H]1[C@H]2C[C@H]2[C@H]2[C@@H]3CC[C@@H]4C[C@](C)(O)CC[C@@H]4[C@H]3CC[C@@]21C` [Compound No. 9, 1-((2R,4aS,4bR,6aS,7S,7aS,8aR,8bR,8cR,10aR)-2-hydroxy-2,6a-dimethyloctadecahydrocyclopropa[4,5]cyclopenta[1,2-a]phenanthren-7-yl)ethanone] it was less than 100 nM.

(Values after US20240101592A1, “COMPOSITIONS AND METHODS FOR TREATING CNS DISORDERS” (Sage Therapeutics, Inc., priority 2020, published 2024).)
